# Source: patent publication US4831155A (priority 1984, dated 1989)
# Read-outs that look alike come from different tables or passages of the source.
# Experiments:
# [1] = acute toxicity (lethal dose) in mice; assay type: in vivo; details: mouse, in vivo, injection, determined within two hours, read-out: lethal dose 50 (LD50)
# Method: (§1) The activity of the this product was evaluated in terms of its toxicity (lethal dose: LD) and its behavioural effects.
# (§2) The experiments were conducted using male Swiss mice with a weight of about 30 g.
# (§3) The acute toxic effects of the heptyl derivative were also evaluated as a comparison with the effects of physostigmine. […] Compared with physostigmine, the lethal dose 50 of the heptyl derivative is about 60 times greater, the LD50 for physostigmine being 0.6 mg/kg. The LD50 values were determined within two hours from the injection. Beyond this time, no obvious effects were observable. The LD50 values of other derivatives according to the present invention, evaluated with the same method resulted as follows: […]
# male Swiss mice [2] = experiment: spontaneous locomotor activity in mice (two-part cage); assay type: in vivo
# Method: (§4) In particular, with regard to this latter aspect, an evaluation was made of the effects of the substance on spontaneous locomotor activity, and of the antagonisms of the heptyl derivative towards the central stimulating effects of anticholinergic drugs (scopolamine). An evaluation was also made of the effects of the substance on the electrocorticographic activity and on the inhibition of cerebral acetylcholinesterase (AchE) "in vivo".
# as §2
# The test used for measuring the spontaneous locomotor activity was that employing a cage divided into two parts.
# [3] = biological target: T1, acetylcholinesterase originating from "Electrophorus electricus" (Electrophorus electricus, UniProt O42275)
# [4] = test system: acetylcholinesterase (AchE); experiment: acetylcholinesterase (AChE) inhibition in the brain and serum after i.p. administration; assay type: in vivo, rats; details: n=4; for AChE inhibition, brain (M ± SE) / AChE inhibition, serum (M ± SE): Table I, 10 min, salicylate
# Method: The acetylcholinesterase (AchE) inhibition in the brain and serum was tested for the heptyl derivative in comparison with physostigmine. Both physostigmine and heptyl derivative were used in form of salycilate and dissolved in distilled water with carbossimethyl cellulose sodium salt at 2%.
# [5] = test system: cerebral acetylcholinesterase (AchE); assay type: in vivo, mice
# [6] = biological target: T1, acetylcholinesterase originating from "Electrophorus electricus"; experiment: biochemical
# male Swiss mice [7] = experiment: acute toxicity (lethal dose) in mice; assay type: in vivo
# Method: as §1, §2, §3
# [8] = test system: mice implanted with parietal electrodes; experiment: electrocorticographic activity; assay type: in vivo; details: 10 mg/kg, 15 minutes after administration
# Method: as §4, §2
# The […] was recorded by a Beckmann polygraph.
# male Swiss mice [9] = experiment: antagonism towards the central stimulating effects of scopolamine; assay type: in vivo
# Method: as §4, §2
# At the central cholinergic antagonists exert a stimulating action on spontaneous activity, a study was carried out of the antagonism towards the stimulating effects of scopolamine (a typical anticholinergic drug which acts at the central level) by the heptyl derivative. […] These activities show the existence of antagonism towards the central effects of scopolamine, indicative of a central effect of the heptyl derivative.
# [10] = Table II, i.p. equiactive doses: Phys. 0.2, Hept. 1.0 mg/Kg
# [11] = bimolecular rate constant, value = ki × 10^-5
# [12] = first order carbamylation rate constant
# [13] = first order reactivation rate constant, value = k3 × 10^2
# T1 sequence (O42275 24-633): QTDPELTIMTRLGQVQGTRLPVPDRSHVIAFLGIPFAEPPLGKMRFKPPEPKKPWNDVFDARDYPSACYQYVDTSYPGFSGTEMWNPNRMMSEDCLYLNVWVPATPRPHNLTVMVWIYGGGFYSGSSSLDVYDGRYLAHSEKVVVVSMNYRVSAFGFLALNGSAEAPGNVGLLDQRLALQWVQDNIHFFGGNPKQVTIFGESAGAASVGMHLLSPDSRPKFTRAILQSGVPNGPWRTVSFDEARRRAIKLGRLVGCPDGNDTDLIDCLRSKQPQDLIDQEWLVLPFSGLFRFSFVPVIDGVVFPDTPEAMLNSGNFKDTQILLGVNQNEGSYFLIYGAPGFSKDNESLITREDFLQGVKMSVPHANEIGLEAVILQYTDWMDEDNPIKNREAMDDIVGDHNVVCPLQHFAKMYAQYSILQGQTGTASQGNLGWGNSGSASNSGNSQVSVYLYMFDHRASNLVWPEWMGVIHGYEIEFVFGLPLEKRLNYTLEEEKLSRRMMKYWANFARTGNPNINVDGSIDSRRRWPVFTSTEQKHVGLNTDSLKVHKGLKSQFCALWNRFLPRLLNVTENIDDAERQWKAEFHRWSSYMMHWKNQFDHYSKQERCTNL
structure (smiles),measurement,setting,value
"CNC(=O)Oc1ccc2c(c1)[C@]1(C)CCN(C)[C@@H]1N2C [Eserine, reference compound]",LD50 at 2 h,[1],0.6 mg/kg
same,effect on spontaneous locomotor activity (analogous to depressing effect of heptyl derivative),male Swiss mice [2]; doses between 0.1 and 0.3 mg/kg,An analogous effect
same,k2 (± S.E.),[3],8.8 ± 1.0
same,k3 × 10^2 (± S.E.),[3],5.4 ± 0.2
same,ki × 10^-5 (± S.E.),[3],26.6 ± 0.8
same,"AChE inhibition, brain (M ± SE)",[4]; 0.15 mg/kg i.p.,39.18 ± 4.32%
same,"% AChE Inhibition, brain, 60 minutes (M ± SE)",[4]; [10],12.47 ± 2.83%
same,"% AChE Inhibition, brain, 120 minutes (M ± SE)",[4]; [10],3.28 ± 1.99%
same,effect on coloration of cerebral tissues (AchE inhibition),[5]; 0.4 and 0.5 mg/kg,no evident effect
CCNC(=O)Oc1ccc2c(c1)[C@]1(C)CCN(C)[C@@H]1N2C [Ethyl-],ki × 10^-5 (± S.E.),[3]; [11],2.3 ± 0.1
same,k2 (± S.E.),[3]; [12],3.5 ± 1.1
same,k3 × 10^2 (± S.E.),[3]; [13],2.5 ± 0.3
same,IC50,[6],1000 nM
same,Ki,[6],130 nM
"CCCCCCCCCCCNC(=O)Oc1ccc2c(c1)[C@]1(C)CCN(C)[C@@H]1N2C [Undecyl-, trimethyl-1,3a,8-hexahydro-1,2,3,3a,8,8a-pyrrol[2,3-b]indole-5(3aS, 8aR) undecylcarbamate]",ki × 10^-5 (± S.E.),[3]; [11],0.8 ± 0.1
same,IC50,[6],2900 nM
"CCN(CC)C(=O)Oc1ccc2c(c1)[C@]1(C)CCN(C)[C@@H]1N2C [diethyl derivative, Pyrrolo [2,3-b]indol-5-ol,3,3a,8,8a-hexahydrol,3a,8-trimethyl-diethylcarbamate (ester), (3aS-cis)]",LD50 at 2 h,[1],38 mg/kg
same,ki × 10^-5 (± S.E.),[3]; [11],0.004
same,IC50,[6],680000 nM
"CN(C)C(=O)Oc1ccc2c(c1)[C@]1(C)CCN(C)[C@@H]1N2C [dimethyl derivative, Pyrrolo [2,3-b]indol-5-ol,3,3a,8,8a-hexahydro-1,3a,8-trimethyl-dimethylcarbamate (ester),(3aS-cis)]",LD50 at 2 h,[1],9 mg/kg
same,ki × 10^-5 (± S.E.),[3]; [11],0.2 ± 0.05
same,k2 (± S.E.),[3]; [12],8.8 ± 3.3
same,k3 × 10^2 (± S.E.),[3]; [13],8.5 ± 1.2
same,IC50,[6],3100 nM
same,Ki,[6],348 nM
"CCCCCCCNC(=O)Oc1ccc2c(c1)[C@]1(C)CCN(C)[C@@H]1N2C [heptyl derivative, trimethyl-1,3a,8-hexahydro-1,2,3,3a,8,8a-pyrrol[2,3-b]indole-5(3aS, 8aR) heptylcarbamate]",lethal dose 100 (LD100),male Swiss mice [7]; injection,45 mg/kg
same,lethal dose 50 compared with physostigmine,male Swiss mice [7]; ratio to LD50 of physostigmine,about 60 times greater
same,LD50 at 2 h,[1],35 mg/kg
same,reduction in locomotor activity compared with the controls,male Swiss mice [2]; 5 mg/kg,25%
same,influence on spontaneous locomotor activity,male Swiss mice [2]; between 0.1 mg/kg and 3 mg/kg,does not influence spontaneous activity
same,effect on spontaneous locomotor activity,male Swiss mice [2]; doses higher than 3 mg/kg,a depressing effect is observed
same,electrocorticographic amplitude,[8],an increase in its amplitude
same,electrocorticographic rate,[8],a slowing down of the electrocorticographic rate
same,ki × 10^-5 (± S.E.),[3]; [11],2.8 ± 0.1
same,k2 (± S.E.),[3]; [12],7.2 ± 3.6
same,k3 × 10^2 (± S.E.),[3]; [13],0.71 ± 0.08
same,"AChE inhibition, brain (M ± SE)",[4]; 0.50 mg/kg i.p.,25.55 ± 11.64%
same,"AChE inhibition, serum (M ± SE)",[4]; 0.50 mg/kg i.p.,20.85 ± 5.64%
same,"AChE inhibition, brain (M ± SE)",[4]; 1.00 mg/kg i.p.,50.00 ± 1.32%
same,"AChE inhibition, serum (M ± SE)",[4]; 1.00 mg/kg i.p.,59.40 ± 1.99%
same,"AChE inhibition, brain (M ± SE)",[4]; 2.00 mg/kg i.p.,53.62 ± 10.51%
same,"AChE inhibition, serum (M ± SE)",[4]; 2.00 mg/kg i.p.,67.42 ± 4.29%
same,"AChE inhibition, brain (M ± SE)",[4]; 4.00 mg/kg i.p.,72.35 ± 5.92%
same,"AChE inhibition, serum (M ± SE)",[4]; 4.00 mg/kg i.p.,79.42 ± 2.89%
same,"% AChE Inhibition, brain, 10 minutes (M ± SE)",[4]; [10],50.00 ± 1.32%
same,"% AChE Inhibition, brain, 60 minutes (M ± SE)",[4]; [10],28.46 ± 9.56%
same,"% AChE Inhibition, brain, 120 minutes (M ± SE)",[4]; [10],22.45± 2.54%
same,"% AChE Inhibition, serum, 10 minutes (M ± SE)",[4]; [10],59.40 ± 1.99%
same,"% AChE Inhibition, serum, 60 minutes (M ± SE)",[4]; [10],41.15 ± 4.29%
same,"% AChE Inhibition, serum, 120 minutes (M ± SE)",[4]; [10],21.53 ± 2.31%
same,effect on coloration of cerebral tissues (AchE inhibition),"[5]; 20 mg/kg, injected 15 minutes before sacrifice",evident diminution in the coloration of the cerebral tissues
same,duration of effect on coloration of cerebral tissues,[5]; 30 mg/kg,remained for more than one hour
same,effect on coloration of cerebral tissues (AchE inhibition),"[5]; 30 mg/kg, compared with 20 mg/kg",even more marked
same,antagonism of scopolamine-induced stimulation,male Swiss mice [9]; 3 mg/kg against scopolamine 1 mg/kg,restored the activity to the control values
same,effect of the dose per se,male Swiss mice [9]; 3 mg/kg alone,ineffective
same,IC50,[6],1000 nM
same,Ki,[6],53 nM
"CCCNC(=O)Oc1ccc2c(c1)[C@]1(C)CCN(C)[C@@H]1N2C [n.Propyl-, trimethyl-1,3a,8-hexahydro-1,2,3a,8,8a-pyrrol[2,3-b]indole-5(3aS, 8aR) propylcarbamate]",ki × 10^-5 (± S.E.),[3]; [11],0.9 ± 0.1
same,IC50,[6],2500 nM
CCCCNC(=O)Oc1ccc2c(c1)[C@]1(C)CCN(C)[C@@H]1N2C [n.butyl derivative],LD50 at 2 h,[1],6 mg/kg
same,ki × 10^-5 (± S.E.),[3]; [11],2.0 ± 0.1
same,k2 (± S.E.),[3]; [12],6.7 ± 3.5
same,k3 × 10^2 (± S.E.),[3]; [13],0.45 ± 0.14
same,IC50,[6],3500 nM
same,Ki,[6],26 nM
CCCCCCCCCNC(=O)Oc1ccc2c(c1)[C@]1(C)CCN(C)[C@@H]1N2C [n.nonyl derivative],LD50 at 2 h,[1],50 mg/kg
same,ki × 10^-5 (± S.E.),[3]; [11],1.5 ± 0.1
same,IC50,[6],1500 nM
"CN1[C@@H]2C[C@@H](OC(=O)[C@H](CO)c3ccccc3)C[C@H]1[C@@H]1O[C@@H]12 [scopolamine, reference compound]",increase in basic locomotor activity,male Swiss mice [9]; scopolamine 1 mg/kg,100%
